Laboratory results reported in patent US7795379B2, “Isolated nucleic acid molecules encoding cancer associated antigens, the antigens per se, and uses thereof” (Ludwig Institute for Cancer Research, priority 1999, dated 2010).

How the values were obtained:
[1] = tested on: CD4^+ T cells; assay: IFN-gamma ELISPOT with overlapping NY-BR-1 18-mers, CD4+ T cells of NY-BR-1 positive patients; assay type: cell-based, human; details: IFN-gamma ELISPOT after presensitization with 18-mer, numbering by SEQ ID NO: 32
Method: (§1) CD4^+ and CD8^+ T lymphocytes were separated from PBMC of NY-BR-1 positive patients by magnetic beads (MiniMACS) and seeded into 48-well plates at a concentration of 2.5-5×10^5 cells per well in RPMI medium 1640 supplemented with 10% human serum, L-asparagine (50 mg/l), L-arginine (242 mg/l), and L-glutamine (300 mg/l). PBMC depleted of T cells were used as antigen presenting cells. After irradiation, these cells were incubated with 39 single peptides (10 μg/ml) spanning amino acids 1004-1397 of NY-BR-1(SEQ ID NO: 32) each of 18 amino acids in length and overlapping in 8 positions on each terminus, for 1 hour at room temperature and added to plates at a concentration of 1×10^6 cells per well. IL-2 and IL-4 (2.5 ng/ml and 50 U/ml, respectively) were added to CD4^+ T cell cultures, and IL-2 and IL-7 (2.5 ng/ml and 10 ng/ml, respectively) to CD8^+ T cells. Peptide specific T cell responses against the stimulating epitope were determined by IFN-gamma ELISPOT assays 6 to 12 days after presensitization.
(§2) Flat-bottomed, 96 well nitrocellulose plates were coated with IFN-γ mAb and incubated overnight at 4° C. After washing with PBS, the plates were blocked with 10% human AB serum for 1 hour at 37° C. Presensitized CD4^+ or CD8^+ T cells from (1×10^3 to 5×10^4) and 5×10^4 peptide-pulsed APC (autologous Dendritic Cells or Epstein Barr Virus transfected B cells) were added to each well and incubated for 20 hours in RPMI medium 1640 lacking both IL-2 and human serum. Plates were then washed thoroughly with PBS to remove cells, and biotinylated IFN-γ mAbs were added to each well. After incubation for 2 hours at 37° C., the plates were washed and developed with streptavidin-alkaline phosphase for 1 hour at room temperature. After washing, substrate (5-bromo-4-chloro-3-indolyl phosphate/nitroblue tetrazolium) was added and incubated for 5 minutes.
(§3) Both CD4^+ and CD8^+ T cells were collected from twenty patients, who had been diagnosed with cancer and expressed NY-BR-1, as determined via the methods set forth supra. These CD4^+ and CD8^+ T cells were then analyzed for spontaneous NY-BR-1 specific, CD4^+ and CD8^+ responses.
(§4) Lymphocytes, which had been purified in accordance with the standard methods set forth supra, were presensitized with synthetic 18 mers which overlapped each other, and spanned amino acids […] of SEQ ID NO: 32.
(§5) Following the presensitization, effector cell populations were tested for recognition of ELISPOT assays, with autologous, EBV transfected B cells, and T2 cell lines being used as the antigen presenting cells in the ELISPOT assays. ELISPOT assays were carried out as described supra.

[2] = tested on: CD8^+ T cells; assay: IFN-gamma ELISPOT with overlapping NY-BR-1 18-mers, CD8+ T cells of NY-BR-1 positive patients; assay type: cell-based, human; details: for recognized by CD8+ cells: IFN-gamma ELISPOT after presensitization with 18-mer, numbering by SEQ ID NO: 32
Method: as §1, §2, §3, §4, §5

[3] = tested on: CD8^+ T cell clones; assay: T cell stimulation assay: TNF-α production by peptide/HLA-A2 specific CTL clones with COS-7 transfectants (NY-BR-1 + HLA-A2); assay type: cell-based, human; details: COS-7 cells transfected with NY-BR-1 and HLA-A2; CD8+ T cell clones of breast cancer patient NW-1100
Method: Sequences encoding NY-BR-1 were excised from plasmid pQE9, via standard restriction enzyme digestion, and were cloned into BamHI-Hind III sites of commercially available plasmid pcDNA31 (−).
The resulting vectors were then transfected into COS-7 cells. To accomplish this, 2×10^4COS-7 cells were admixed with 150 ng of the construct described supra, and 150 ng of plasmid pcDNA-AmpI, which contained cDNA encoding HLA-A2. The standard DE AE-dextran chloroquine method was used. Transfectants were then incubated at 37° C. for 48 hours, and then tested in a T cell stimulation assay, after 24 hours, as described infra.
The transfectants were tested to determine if they could stimulate production of TNF-α by CTLs specific for complexes of HLA-A2 molecules and one of the peptides described supra. The CTLs used were CD8^+ T cell clones. […]
To test if the transfectants stimulated the CD8^+ cells, 5000 of these CD8^+ cells, in 100 μl RPMI supplemented with 10% human serum, and 25 U/ml of recombinant human IL-2 were added to micowells containing the transfectants. After 24 hours, 50 μl samples of supernatant were collected, and TNFα content was determined by testing cytotoxicity against WEHI 164 clone 13 cells, in an MTT colorimetric assay, which is a standard method for showing TNFα production.

[4] = tested on: CD8^+ cells; assay: ELISPOT assay (interferon gamma) of CTL stimulation by NY-BR-1 peptides pulsed onto T2 cells; assay type: cell-based, human; details: peptides pulsed onto irradiated T2 cells at 10 ug/ml; CD8+ effector cells presensitized with peptide; HLA-A2
Method: A series of peptides were synthesized, based upon the amino acid sequence of NY-BR-1, as set forth in SEQ ID NO: 23 and the concatenation of SEQ ID NOS: 30 & 23, as described supra and set forth at SEQ ID NO: 32. These were then tested for their ability to bind to HLA-A2 molecules and to stimulate CTL proliferation, using an ELISPOT assay. This assay involved coating 96-well, flat bottom nitrocellulose plates with 5 ug/ml of anti-interferon gamma antibodies in 100 ul of PBS per well, followed by overnight incubation. Purified CD8^+ cells, which had been separated from PBL samples via magnetic beads coated with anti-CD8 antibodies were then added, at 1×10^5 cells/well, in RPMI 1640 medium, that had been supplemented with 10% human serum, L-asparagine (50 mg/l), L-arginine (242 mg/l), L-glutamine (300 mg/l), together with IL-2 (2.5 ng/ml), in a final volume of 100 ul. CD8^+ effector cells were prepared by presensitizing with peptide, and were then added at from 5×103 to 2×10^4 cells/well. Peptides were pulsed onto irradiated T2 cells at a concentration of 10 ug/ml for 1 hour, washed and added to effector cells, at 5×10^4 cells/well. The plates were incubated for 16 hours at 37° C., washed six times with 0.05% Tween 20/PBS, and were then supplemented with biotinylated, anti-interferon gamma specific antibody at 0.5 ug/ml. After incubation for 2 hours at 37° C., plates were washed, and developed with commercially available reagents, for 1 hour, followed by 10 minutes of incubation with dye substrate. Plates were then prepped for counting, positives being indicated by blue spots. The number of blue spots/well was determined as the frequency of […] specific CTLs/well.
Experiments were run, in triplicate, and total number of CTLs was calculated. As controls, one of reagents alone, effector cells alone, or antigen presenting cells alone were used. The difference between the number of positives in stimulated versus non-stimulated cells, was calculated as the effective number of peptide specific CTLs above background.

[5] = target: T1, serum samples from breast cancer patients and normal serum samples (Homo sapiens, UniProt Q9BXX3); assay: Western blotting of serum samples against recombinant NY-BR-1 protein fragments; assay type: binding
T1 construct: made in house
T1 sequence (Q9BXX3 1049-1244): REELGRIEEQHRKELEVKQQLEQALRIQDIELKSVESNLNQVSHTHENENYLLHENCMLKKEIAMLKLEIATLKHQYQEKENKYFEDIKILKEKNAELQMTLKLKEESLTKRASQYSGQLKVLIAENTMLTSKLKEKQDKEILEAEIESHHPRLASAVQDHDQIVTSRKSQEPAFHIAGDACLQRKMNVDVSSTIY
Method: The frequency of antibody response against NY-BR-1 in breast cancer patients was tested. To do this, a recombinant protein consisting of amino acids 993-1188 of SEQ ID NO: 23 was prepared. (This is the protein encoded by clone BR 17-128, referred to supra). A total of 140 serum samples were taken from breast cancer patients, as were 60 normal serum samples. These were analyzed via Western blotting, using standard methods.
An additional set of experiments was then carried out to determine if sera recognized the portion of NY-BR-1 protein with repetitive elements. To do this, a different recombinant protein, consisting of amino acids 405-1000 was made, and tested in Western blot assays.

EDIKILKEKNAELQMTLK [p1134-1151]
CD4+ cells reacted / recognized by CD4+ T cells [1]: reacted

ENQKVKWEQELCSVRLTL [p1014-1031]
CD4+ cells reacted / recognized by CD4+ T cells ([1]; listed as 1011-1021): reacted

FNYNNHLKNRIYQYEKEK [p1374-1391]
CD4+ cells reacted / recognized by CD4+ T cells [1]: reacted

HENENYLLHENCMLKKEI [p1094-1111]
CD4+ cells reacted / recognized by CD4+ T cells [1]: reacted

HIAGDACLQRKMNVDVSS [p1224-1241]
recognized by CD8+ cells [2]: recognized

HLLKEKNEEIFNYNNHLK [p1364-1381]
CD4+ cells reacted / recognized by CD4+ T cells [1]: reacted

KINLNYAGDALRENTLVS [p1264-1281]
recognized by CD8+ cells [2]: recognized
CD4+ cells reacted / recognized by CD4+ T cells [1]: reacted

LLSHGAVIEV [NY-BR-1 derived peptide, HLA-A2]
peptide/HLA-A2 complexes recognized by CD8+ T cells (TNFα production); naturally processed epitope [3]: natural epitopes
reactive in ELISPOT (peptide specific CTLs above background) [4]: reactive

LRENTLVSEHAQRDQRET [p1274-1291]
recognized by CD8+ cells [2]: recognized

QQQLVHAHKKADNKSKIT [p1334-1351]
recognized by CD8+ cells [2]: recognized

QYQEKENKYFEDIKILKE [p1124-1141]
CD4+ cells reacted / recognized by CD4+ T cells [1]: reacted

SLDQKLFQL [NY-BR-1 derived peptide, HLA-A2]
reactive in ELISPOT (peptide specific CTLs above background) [4]: reactive

SLSKILDTV [NY-BR-1 derived peptide, HLA-A2]
peptide/HLA-A2 complexes recognized by CD8+ T cells (TNFα production); naturally processed epitope [3]: natural epitopes
reactive in ELISPOT (peptide specific CTLs above background) [4]: reactive

TSRKSQEPAFHIAGDACL [p1214-1231]
recognized by CD8+ cells [2]: recognized
HLA restriction ([2]; recognized when pulsed onto T2 cells, patient 1): restricted to HLA-A2

YSGQLKVLIAENTMLTSK [p1164-1181]
CD4+ cells reacted / recognized by CD4+ T cells [1]: reacted

B1: amino acids 405-1000: recombinant protein consisting of amino acids 405-1000 of NY-BR-1, the portion with repetitive elements (protein, UniProt Q9BXX3 405-1000, looked up, fragment)
chain: KFTWAAKGRPRKIAWEKKETPVKTGCVARVTSNKTKVLEKGRSKMIACPTKESSTKASANDQRFPSESKQEEDEEYSCDSRSLFESSAKIQVCIPESIYQKVMEINREVEEPPKKPSAFKPAIEMQNSVPNKAFELKNEQTLRADPMFPPESKQKDYEENSWDSESLCETVSQKDVCLPKATHQKEIDKINGKLEESPNKDGLLKATCGMKVSIPTKALELKDMQTFKAEPPGKPSAFEPATEMQKSVPNKALELKNEQTLRADEILPSESKQKDYEENSWDTESLCETVSQKDVCLPKAAHQKEIDKINGKLEGSPVKDGLLKANCGMKVSIPTKALELMDMQTFKAEPPEKPSAFEPAIEMQKSVPNKALELKNEQTLRADEILPSESKQKDYEESSWDSESLCETVSQKDVCLPKATHQKEIDKINGKLEESPDNDGFLKAPCRMKVSIPTKALELMDMQTFKAEPPEKPSAFEPAIEMQKSVPNKALELKNEQTLRADQMFPSESKQKKVEENSWDSESLRETVSQKDVCVPKATHQKEMDKISGKLEDSTSLSKILDTVHSCERARELQKDHCEQRTGKMEQMKKKFCVLK
reactivity of the four antibody positive sera in Western blot ([5]; the four cancer sera positive for amino acids 993-1188): None of the four antibody positive sera reacted

B2: amino acids 993-1188: recombinant protein consisting of amino acids 993-1188 of SEQ ID NO: 23 (NY-BR-1) (protein)
chain: T1 sequence (Q9BXX3 1049-1244)
reactivity of normal sera in Western blot ([5]; 60 normal serum samples): negative
cancer sera samples positive in Western blot ([5]; 140 serum samples from breast cancer patients): Four
